Read-outs that look alike come from different tables or passages of the source.
System: bovine viral diarrhea virus (BVDV)
Conditions: 60 minutes, 20° C., Reed and Muench
Experimental: In this example bovine viral diarrhea virus (BVDV), biotype 1 (CPE), genotype 1 Host: Madin-Darby bovine kidney (MDBK) cells were inactivated according to the methods discussed in Example 2.
Bovine viral diarrhea virus (BVDV), biotype I (CPE), genotype 1 was used in these studies which infect Madin-Darby bovine kidney (MDBK) cells. […] These samples (0.5 mL) were loaded into pre-spun sephacryl columns. The columns were spun for 4 minutes at 1000 rpm. The samples were aseptically removed from the columns and ten-fold serial dilutions were then prepared in minimal essential medium (MEM) and adsorbed on the monolayer of host cells seeded in tissue culture plates for one hour at 37±2° C. and 5±1% C02. Post-adsorption, the monolayers were washed with EBSS and replaced with fresh MEM and incubated for 5-7 days at 37±2° C. and 5±1% C02. The presence of infectious viruses was determined as described below: post-incubation, the plates were washed with 3× with PBS and fixed with TC grade alcohol and stained with direct porcine polyclonal anti-BVDV conjugated antibody. The stained plate were scored using UV microscopy using a Nikon Diaphot microscope, and monolayers that contained one or more BVDV surface antigen positive […] were scored positive. Four wells per dilution were inoculated and results were recorded as the FFFUD50 calculated by Reed and Munch (1938).

Measured: FFFUD50/mL (log10)

paraformaldehyde
0 FFFUD50/mL (log10): 2.5% paraformaldehyde column 1 | 2.5% paraformaldehyde column 2 | 2.5% paraformaldehyde column 3 | 2.5% paraformaldehyde column 4

Source: US9120849B2 (priority 2000, dated 2015)
